# Experimental data taken from patent publication US11286278B2, “DPEP-1 binding agents and methods of use” (Arch Biopartners, Inc., priority 2018, dated 2022).
# Ends that are not written are not given here.
# Experiments:
# [1] = molecular target: T1, rat DPEP-1 (Rattus norvegicus, UniProt P31430); experiment: Immunofluorescence binding of Alexa-488 conjugated peptides to Cos-1 cells transfected with rat DPEP-1; details: Alexa-488 conjugate, on ice 30 minutes
# T1 construct: expressed in transfected cells; host or cells: Cos-1
# Method: Cos-1 cells were transiently transfected with either 3 or 5 μg of membrane dipeptidase (DPEP-1) cDNA corresponding to the rat (Shown in FIG. 5A), human (Shown in FIG. 5B), or canine (Shown in FIG. 5E) DPEP-1 gene using Lipofectamine 2000 (Invitrogen) reagent in OptiMEM medium. 24 hours after transfection, DPEP-1 expresisng cells were re-seeded on collagen coated (neutralized) wells in 24 well plates and allowed to grow for 24 hours at 37° C. […] Cells were blocked with FBS/NBSA/Tween in PBS for 30 minutes on ice. Cells were then washed with PBS and incubated with Alexa-488 (green) conjugated LSALT, GFE-1, control peptide or DPEP-1 antibody ( 1/100) (Sigma) on ice for 30 minutes. […] After incubation, cells were washed with PBS and treated with 10 mg/ml biotin transfer peptide (LSALT, GFE-1 or Control Peptide (KGAL)] for 10 minutes. Cells were then washed with PBS and biotin transfer was enabled by UV activation of the aryl azide groups for 15 minutes at 363 nm. Residual fluid was removed and monolayers were lysed either with octyl-glucoside/RIPA or 8M urea. Isolated supernatants were rotated with 50 μl of neutr-avidin agarose beads at 4° C. for 24 hours. Beads were washed with corresponding buffers, boiled in Laemmli buffer and analyzed by western blot using a DPEP-1 specific antibody (Proteintech).
# [2] = molecular target: T2, human membrane dipeptidase (DPEP-1) (Homo sapiens, UniProt P16444); experiment: Membrane dipeptidase enzyme activity assay (Gly-D-Phe, fluorometric); type: biochemical; details: lysates of transfected Cos1 cells, substrate Gly-D-Phe
# T2 construct: expressed in transfected cells; host or cells: Cos-1
# T2 sequence (P16444 17-385): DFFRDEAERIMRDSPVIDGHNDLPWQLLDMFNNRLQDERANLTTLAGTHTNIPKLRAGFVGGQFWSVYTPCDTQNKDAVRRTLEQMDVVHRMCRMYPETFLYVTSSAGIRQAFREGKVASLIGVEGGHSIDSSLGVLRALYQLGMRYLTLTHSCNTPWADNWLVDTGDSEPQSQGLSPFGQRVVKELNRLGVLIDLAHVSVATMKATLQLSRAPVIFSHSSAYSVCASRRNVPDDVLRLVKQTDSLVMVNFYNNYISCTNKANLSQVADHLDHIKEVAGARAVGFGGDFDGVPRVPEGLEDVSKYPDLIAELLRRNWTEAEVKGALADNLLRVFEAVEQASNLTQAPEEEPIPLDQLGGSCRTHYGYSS
# Method: 24 hours after transfection, DPEP-1 expressing cells weer reseeded on 24 well collagen coated (neutralized) plates and allowed to grow for 24 hours at 37° C. […] Cells were blocked with FBS/NBSA/Tween in PBS for 30 minutes on ice. […] After incubation, cells were washed with PBS and stained with DAPI for 4 minutes on ice. Cells were again washed with PBS, fixed using 4% paraformaldehyde and immunofluoresence microscopy was performed to assess binding. Proteins from human DPEP-1 transfected cells were isolated after 48 hours using octyl-glucoside/RIPA in the absence of protease inhibitors. […] Proteins from transfected cells were isolated after 48 hours using octyl-glucoside/RIPA lysis buffer and western blot analysis was performed to assess DPEP-1 expression using DPEP-1 antibody (Sigma).
# The fluorescence signal generated from the conversion of D-Phe to […] in the presence of D-aminoacidoxidase and peroxidase was measured using a fluorescence plate reader.
# Proteins from DPEP-1 transfected cells were isolated after 48 hours using octyl-glucoside/RIPA lysis buffer and western blot analysis was performed to assess DPEP-1 expression using a DPEP-1 specific antibody (Proteintech) (FIG. 24B).
# [3] = system: serum cytokines; experiment: Plasma cytokine levels after LPS, Luminex Cytokine Arrays; type: in vivo, mouse; details: SCID mice, LPS 0.5 mg/kg i.p., 4 hours
# Method: 6-8 weeks old SCID mice were given an intraperitoneal injection of LPS (0.5 mg/kg) 5 minutes prior to intravenous injection of LSALT peptide or a control peptide. 4 hours following injection of LPS, blood was collected by cardiac puncture and changes in plasma cytokine levels were assessed using Luminex Cytokine Arrays. Bar graphs show the levels of different inflammatory mediators released in the plasma in the presence or absence of LSALT peptide and control peptide.
# 6-8 weeks old SCID mice were given an intraperitoneal injection of LPS (0.5 mg/kg) 5 minutes prior to intravenous injection of LSALT peptide or a control peptide. 4 hours following injection of LPS, blood was collected by cardiac puncture and changes in plasma cytokine levels were assessed using Luminex Cytokine Arrays. Bar graphs show the level of the anti-inflammatory cytokine IL-10 released in the plasma in LSALT peptide or control peptide in two independent experiments.
# [4] = system: DPEP1-expressing COS1 monolayers; experiment: Cancer cell binding to DPEP1-expressing COS1 monolayers; type: cell-based; details: LSALT 50 μM
# Method: Cos-1 cells were transfected with 3 μg of human DPEP-1 cDNA. Transfected cells were reseeded 24 hours after on 12 or 24 well places. 48 hours later, 70 W melanoma cells expressing stable GFP-luciferase were harvested using Puck's EDTA and 10×10^3 cells were seeded on top of the DPEP-1 expressing Cos-1 monolayer. Cells were incubated for 4 hours at 37 C. After incubation cells were vigorously washed two times with PBS. Cells were then fixed using paraformaldehyde (4%). The number 70 W melanoma cells bound/adhered were counted under 10× magnification over 10 different field of views using an inverted fluorescence microscope (FIG. 24A). […] A unpaired 2-tailed Student's t-test was performed to compare the binding of 70 W melanoma cells to DPEP-1 transfected cells against the control of mock transfected cells. Values shown are from three independent experiments; asterisks (***) indicate P<0.001 as compared with mock transfected cells.
# LSALT decreases binding of metastatic cancer cells to DPEP1-expressing COS1 monolayers in vitro. […] FIGS. 21B-C show quantification of murine melanoma B16-F10 (B) or murine breast cancer E0771.LMB (C) cells that bind to COS1 (control) or DPEP1 COS1 in the absence or presence of LSALT (50 μM).
# T1 sequence (P31430 17-384): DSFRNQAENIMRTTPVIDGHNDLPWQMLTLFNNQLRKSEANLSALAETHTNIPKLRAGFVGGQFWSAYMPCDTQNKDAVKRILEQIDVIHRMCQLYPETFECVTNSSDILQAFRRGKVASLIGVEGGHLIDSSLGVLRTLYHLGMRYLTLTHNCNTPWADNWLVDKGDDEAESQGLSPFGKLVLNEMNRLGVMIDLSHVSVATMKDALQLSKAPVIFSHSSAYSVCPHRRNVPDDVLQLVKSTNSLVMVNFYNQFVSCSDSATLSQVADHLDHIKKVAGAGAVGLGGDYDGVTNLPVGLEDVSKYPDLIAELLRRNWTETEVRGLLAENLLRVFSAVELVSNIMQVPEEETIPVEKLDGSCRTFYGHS
substance,measurement,setting,value
H-LSALTPSPSWLKYKAL [LSALT],binding of fluorescently labelled peptide to rat DPEP-1 transfected Cos-1 cells,[1],Binds
same,inhibition of human DPEP1 enzymatic activity,[2],do not inhibit membrane dipeptidase enzyme activity
same,levels of serum cytokines in response to LPS,[3],attenuates the levels of a number of different serum cytokines
same,plasma IL-10 in response to LPS,[3],increases the production of the anti-inflammatory mediator IL-10
same,binding of murine breast cancer cells (E0771.LMB) to DPEP1 transfected COS-1 cells,[4],inhibits binding of murine cancer cells to DPEP1
same,binding of murine melanoma cells (B16-F10) to DPEP1 transfected COS-1 cells,[4],inhibits binding of murine cancer cells to DPEP1
